This experiment deals with A36T virus (PA/A36T, A/PR/8/34 (H1N1)). In kind it is cell-based, influenza A virus.

What is called EC50 is the concentration needed to bring the measured effect to its halfway point. The low end stands for an effect from little substance, the high end for a need for much substance. The molecule `NC(=O)c1nc(F)c[nH]c1=O` [Favipiravir] came in with an EC50 of 19.1 ± 4.87 µM and a Fold change of 0.86.

Consider `O=C1c2c(O)c(=O)ccn2N([C@@H]2c3ccccc3SCc3c2ccc(F)c3F)[C@@H]2COCCN12` [baloxavir acid], for which the EC50 was 0.00259 ± 0.00133 µM and the Fold change came out at 1.53.

Source of the values: publication PMC10675732 (Viruses, 2023).
